Broadly, the IC50 is the concentration needed to halve the response being measured.

Where a name gives a salt, the structure may show the parent alone. Read-outs that look alike come from different tables or passages of the source. Bounds are passed on as bounds.

Data on six compounds can be found in patent US8871753B2, “Macrocyclic compounds and their use as kinase inhibitors” (Incyte Corporation, priority 2008, dated 2014).

Common to all, as to type: biochemical
The target of test [1] is T1, human JAK2 (a.a. 828-1132) (Homo sapiens, UniProt O60674).
T1 construct: JAK2 (a.a. 828-1132); His tag (N); made in house; host or cells: insect cells (baculovirus)
T1 sequence (O60674 828-1132): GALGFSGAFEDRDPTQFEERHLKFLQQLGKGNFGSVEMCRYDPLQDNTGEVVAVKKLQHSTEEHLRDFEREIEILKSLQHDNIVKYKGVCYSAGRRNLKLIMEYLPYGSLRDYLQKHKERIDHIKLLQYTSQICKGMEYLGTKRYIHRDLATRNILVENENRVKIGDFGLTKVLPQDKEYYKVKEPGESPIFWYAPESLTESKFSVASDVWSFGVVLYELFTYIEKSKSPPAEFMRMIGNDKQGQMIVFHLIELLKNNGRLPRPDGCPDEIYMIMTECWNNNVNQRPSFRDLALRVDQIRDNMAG
Kind of test: In vitro JAK kinase assay (HTRF, phosphorylation of a biotinylated peptide), JAK2. In outline: (§1)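 Kinase reactions ran at room temperature for 1 h with ATP matched per isoform (JAK1 90 μM, JAK2 30 μM, JAK3 3 μM). After an EDTA stop, the phosphorylated biotin-peptide was read by HTRF using Eu-Py20 and SA-APC after 40 min binding.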
In general terms: Time-resolved FRET reads energy transfer from a long-lived donor to a nearby acceptor.

The target in another test is TYK2 (Homo sapiens, UniProt P29597). Nature of the test: TYK2 kinase inhibition (Table A1).
Chain of TYK2 (P29597 whole entry): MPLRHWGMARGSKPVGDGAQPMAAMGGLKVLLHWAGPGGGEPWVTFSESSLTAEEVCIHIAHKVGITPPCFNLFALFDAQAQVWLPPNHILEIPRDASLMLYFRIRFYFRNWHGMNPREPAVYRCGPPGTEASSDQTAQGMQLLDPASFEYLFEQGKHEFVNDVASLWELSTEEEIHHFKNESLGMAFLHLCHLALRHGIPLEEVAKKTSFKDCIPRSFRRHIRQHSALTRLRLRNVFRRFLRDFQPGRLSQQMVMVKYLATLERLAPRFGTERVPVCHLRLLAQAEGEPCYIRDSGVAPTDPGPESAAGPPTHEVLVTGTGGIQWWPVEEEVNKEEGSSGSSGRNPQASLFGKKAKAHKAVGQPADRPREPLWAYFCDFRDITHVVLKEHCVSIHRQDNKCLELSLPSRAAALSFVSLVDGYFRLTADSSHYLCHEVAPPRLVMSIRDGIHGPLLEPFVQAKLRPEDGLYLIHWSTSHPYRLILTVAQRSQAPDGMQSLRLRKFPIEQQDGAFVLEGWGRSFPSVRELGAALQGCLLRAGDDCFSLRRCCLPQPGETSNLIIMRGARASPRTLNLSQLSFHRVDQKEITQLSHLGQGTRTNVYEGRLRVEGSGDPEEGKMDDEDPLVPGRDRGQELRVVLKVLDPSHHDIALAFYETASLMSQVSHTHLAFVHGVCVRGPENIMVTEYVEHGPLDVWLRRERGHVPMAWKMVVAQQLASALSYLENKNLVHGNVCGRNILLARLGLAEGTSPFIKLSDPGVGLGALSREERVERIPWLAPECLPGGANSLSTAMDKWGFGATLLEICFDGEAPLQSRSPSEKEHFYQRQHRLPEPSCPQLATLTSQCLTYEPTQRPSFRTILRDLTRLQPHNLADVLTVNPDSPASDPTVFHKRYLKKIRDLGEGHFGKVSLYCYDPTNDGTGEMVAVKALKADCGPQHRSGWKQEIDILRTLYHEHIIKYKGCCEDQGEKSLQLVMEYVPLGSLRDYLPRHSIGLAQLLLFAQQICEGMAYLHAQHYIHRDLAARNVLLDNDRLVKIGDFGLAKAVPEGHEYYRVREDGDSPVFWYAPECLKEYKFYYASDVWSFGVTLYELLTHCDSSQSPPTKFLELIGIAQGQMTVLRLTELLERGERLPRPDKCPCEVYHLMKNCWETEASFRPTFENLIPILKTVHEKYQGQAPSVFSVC
Test [2] has as its target T2, human JAK1 (a.a. 837-1142) (Homo sapiens, UniProt P23458).
T2 construct: human JAK1 (a.a. 837-1142); His tag (N); made in house; host or cells: insect cells (baculovirus)
Kind of test: In vitro JAK kinase assay (HTRF, phosphorylation of a biotinylated peptide), JAK1. The note with it: read-out: JAK1 IC50. In outline:
as §1

The target in test [3] is T3, Recombinant Human Anaplastic Lymphoma Kinase (Homo sapiens, UniProt Q9UM73).
T3 construct: purchased Invitrogen, Carlsbad, Calif
T3 sequence (Q9UM73 19-1620): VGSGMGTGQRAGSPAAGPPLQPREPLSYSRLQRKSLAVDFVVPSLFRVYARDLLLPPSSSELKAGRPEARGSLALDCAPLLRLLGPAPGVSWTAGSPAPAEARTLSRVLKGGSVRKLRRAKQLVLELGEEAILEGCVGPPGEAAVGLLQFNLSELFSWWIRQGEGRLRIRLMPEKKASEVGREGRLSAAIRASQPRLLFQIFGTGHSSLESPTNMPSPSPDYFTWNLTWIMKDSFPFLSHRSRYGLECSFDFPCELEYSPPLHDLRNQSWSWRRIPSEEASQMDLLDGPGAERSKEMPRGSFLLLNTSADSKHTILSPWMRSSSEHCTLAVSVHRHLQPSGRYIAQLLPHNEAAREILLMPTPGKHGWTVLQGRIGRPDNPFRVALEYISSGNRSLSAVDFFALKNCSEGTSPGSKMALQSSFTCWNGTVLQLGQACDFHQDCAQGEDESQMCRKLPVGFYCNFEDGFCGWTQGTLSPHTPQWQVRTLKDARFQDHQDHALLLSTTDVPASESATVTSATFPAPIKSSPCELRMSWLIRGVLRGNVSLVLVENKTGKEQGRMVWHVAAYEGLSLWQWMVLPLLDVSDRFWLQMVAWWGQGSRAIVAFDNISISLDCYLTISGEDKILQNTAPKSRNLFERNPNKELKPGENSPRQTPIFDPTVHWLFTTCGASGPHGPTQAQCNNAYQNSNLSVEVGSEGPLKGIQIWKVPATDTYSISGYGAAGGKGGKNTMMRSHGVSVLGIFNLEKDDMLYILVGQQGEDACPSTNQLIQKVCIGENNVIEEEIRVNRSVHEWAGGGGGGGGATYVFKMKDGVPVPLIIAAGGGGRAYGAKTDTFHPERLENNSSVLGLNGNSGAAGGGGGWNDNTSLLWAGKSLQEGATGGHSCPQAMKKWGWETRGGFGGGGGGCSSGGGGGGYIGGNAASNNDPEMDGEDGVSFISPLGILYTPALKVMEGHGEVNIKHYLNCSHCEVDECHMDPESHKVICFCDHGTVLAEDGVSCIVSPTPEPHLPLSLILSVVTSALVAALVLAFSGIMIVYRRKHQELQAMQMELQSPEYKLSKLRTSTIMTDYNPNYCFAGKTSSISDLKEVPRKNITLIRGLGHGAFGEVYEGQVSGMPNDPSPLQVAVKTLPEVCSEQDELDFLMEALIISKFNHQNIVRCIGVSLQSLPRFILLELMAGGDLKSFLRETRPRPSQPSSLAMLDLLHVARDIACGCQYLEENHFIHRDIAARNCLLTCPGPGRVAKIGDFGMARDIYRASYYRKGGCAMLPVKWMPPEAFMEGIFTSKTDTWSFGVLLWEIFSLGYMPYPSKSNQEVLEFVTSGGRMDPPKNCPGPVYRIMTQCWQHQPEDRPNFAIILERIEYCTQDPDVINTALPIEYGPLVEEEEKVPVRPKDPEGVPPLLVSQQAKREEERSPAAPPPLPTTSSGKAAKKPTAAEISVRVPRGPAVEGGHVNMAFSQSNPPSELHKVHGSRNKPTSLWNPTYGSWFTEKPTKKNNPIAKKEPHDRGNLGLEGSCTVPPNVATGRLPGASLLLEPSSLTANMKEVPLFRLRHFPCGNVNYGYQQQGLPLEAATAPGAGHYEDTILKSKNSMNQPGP
Nature of the test: ALK HTRF kinase assay. Put shortly: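 IC50 was obtained from a logistic fit of signal versus log inhibitor concentration, using pre- and post-transition baselines and a Hill slope. The signal reported tyrosine phosphorylation of a biotinylated peptide by recombinant human kinase, detected as Eu-to-APC energy transfer.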

In test [4] the target is T4, human JAK3 (a.a. 781-1124) (Homo sapiens, UniProt P52333).
T4 construct: JAK3 (a.a. 781-1124); His tag (N); made in house; host or cells: insect cells (baculovirus)
T4 sequence (P52333 781-1124): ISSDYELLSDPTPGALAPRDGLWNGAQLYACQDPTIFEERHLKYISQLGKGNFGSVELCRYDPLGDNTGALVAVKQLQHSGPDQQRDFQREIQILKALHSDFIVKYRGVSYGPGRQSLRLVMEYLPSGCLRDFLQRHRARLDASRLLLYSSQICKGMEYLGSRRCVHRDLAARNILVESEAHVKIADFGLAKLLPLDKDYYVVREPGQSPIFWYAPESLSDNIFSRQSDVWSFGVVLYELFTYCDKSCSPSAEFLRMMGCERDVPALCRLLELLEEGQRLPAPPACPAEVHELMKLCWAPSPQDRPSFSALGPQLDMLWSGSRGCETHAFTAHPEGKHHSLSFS
Kind of test: In vitro JAK kinase assay (HTRF, phosphorylation of a biotinylated peptide), JAK3. In outline:
as §1

[5] abbreviates: method AA1 (30 μM ATP) or AA2 (1000 μM ATP), not stated per value.
The mark [6] stands for this setting: method AA1 (90 μM ATP) or AA2 (1000 μM ATP), not stated per value.
[7] abbreviates: compound at 500 nM or 1 mM, 90 μM ATP.
[8] abbreviates: method AA1 (3 μM ATP) or AA2 (1000 μM ATP), not stated per value.
Setting [9] is: compound at a concentration of 500 nM or 1 mM (not specified), cells shown as percentage.

T2 sequence (P23458 849-1154): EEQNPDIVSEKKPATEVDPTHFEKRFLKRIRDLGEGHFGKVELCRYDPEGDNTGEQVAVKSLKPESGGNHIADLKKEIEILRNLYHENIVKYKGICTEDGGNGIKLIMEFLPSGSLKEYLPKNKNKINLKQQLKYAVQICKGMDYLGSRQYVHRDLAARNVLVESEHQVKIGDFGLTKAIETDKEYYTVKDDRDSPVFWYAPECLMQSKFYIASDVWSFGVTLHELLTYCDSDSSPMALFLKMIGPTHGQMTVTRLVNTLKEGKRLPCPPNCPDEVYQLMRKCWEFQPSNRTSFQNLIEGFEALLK

Take `O=C(CC1CCN(C(=O)c2nc[nH]n2)CC1)Nc1ccc2cc1CCc1cncc(c1)Nc1ncc(Cl)c(n1)N2` [Example A136, N-[6-Chloro-2,4,8,18,22-pentaazatetracyclo[14.3.1.1(3,7).1(9,13)]docosa-1(20),3(22),4,6,9(21),10,12,16,18-nonaen-12-yl]-2-[1-(1H-1,2,4-triazol-3-ylcarbonyl)piperidin-4-yl]acetamide bis(trifluoroacetate)]: the IC50 worked out at 2.4 nM in test [1] (setting [5]), 2.1 nM on TYK2, 0.4 nM in test [2] (setting [6]) and 57 nM in test [4] (setting [8]). Also, the “ALK % of inhibition at a concentration of 500 nM or 1 mM” value (from here on “ALK % of inhibition”) in test [3] (setting [7]) was found to be 38%.

Regarding `N#Cc1cccc(S(=O)(=O)N2CCC(CC(=O)Nc3ccc4cc3CCc3cncc(c3)Nc3ncc(Cl)c(n3)N4)CC2)c1` [Example A228, N-[6-Chloro-2,4,8,18,22-pentaazatetracyclo[14.3.1.1(3,7).1(9,13)]docosa-1(20),3(22),4,6,9(21),10,12,16,18-nonaen-12-yl]-2-{1-[(3-cyanophenyl)sulfonyl]piperidin-4-yl}acetamide bis(trifluoroacetate)], the IC50 in test [1] (setting [5]) is 114 nM; at TYK2, 109 nM; in test [2] (setting [6]), 6.9 nM; in test [4] (setting [8]) it was above 400 nM. The “ALK % of inhibition” value in test [3] (setting [7]) turned out to be 62%.

Consider `CCc1ccc(NC(=O)Nc2ccc3cc2CCc2cccc(c2)Nc2ncc(Cl)c(n2)N3)cc1` [Example B98, N-[6-Chloro-2,4,8,22-tetraazatetracyclo[14.3.1.1(3,7).1(9,13)]docosa-1(20), 3(22),4,6,9(21),10,12,16,18-nonaen-12-yl]-N′-(4-ethylphenyl)urea trifluoroacetate], for which the IC50 came out at 26 nM in test [1] (Table B1), 38 nM against TYK2 (Table B1), 13 nM in test [2] (Table B1) and 91 nM in test [4] (Table B1). In test [3] (setting [9]), the “ALK % of inhibition” value stood at 41%.

Turning to `O=C(Nc1ccc2cc1CCc1cccc(c1)Nc1ncc(Cl)c(n1)N2)c1cnn2ccccc12` [Example B80, N-[6-Chloro-2,4,8,22-tetraazatetracyclo[14.3.1.1(3,7).1(9,13)]docosa-1(20),3(22),4,6,9(21),10,12,16,18-nonaen-12-yl]pyrazolo[1,5-a]pyridine-3-carboxamide bis(trifluoroacetate)], the IC50 was 0.53 nM in test [1] (Table B1), 1.2 nM against TYK2 (Table B1), 0.56 nM in test [2] (Table B1) and 1.7 nM in test [4] (Table B1). Further, the “ALK % of inhibition” value in test [3] (setting [9]) stood at 73%.

Take `O=C(Nc1ccc2cc1CCc1cncc(c1)Nc1ncc(Cl)c(n1)N2)N[C@H]1CCN(C(=O)c2cn[nH]c2)C1` [Example B267, N-[6-chloro-2,4,8,18,22-pentaazatetracyclo[14.3.1.1(3,7).1(9,13)]docosa-1(20),3(22),4,6,9(21),10,12,16,18-nonaen-12-yl]-N′-[(3S)-1-(1H-pyrazol-4-ylcarbonyl)pyrrolidin-3-yl]urea bis(trifluoroacetate)]: the concentration for half-maximal inhibition (IC50) is 765 nM in test [1] (Table B1), 887 nM against TYK2 (Table B1), 27 nM in test [2] (Table B1) and above 10000 nM in test [4] (Table B1). Further, the “ALK % of inhibition” value in test [3] (setting [9]) was 12%.

`CC(C)NC(=O)N1CCC(CC(=O)Nc2ccc3cc2CCc2cncc(c2)Nc2ncc(Cl)c(n2)N3)CC1` [Example A99, 4-(2-{[6-Chloro-2,4,8,18,22-pentaazatetracyclo[14.3.1.1(3,7).1(9,13)]docosa-1(20),3(22),4,6,9(21),10,12,16,18-nonaen-12-yl]amino}-2-oxoethyl)-N-isopropylpiperidine-1-carboxamide bis(trifluoroacetate)]: the IC50 in test [1] (setting [5]) was found to be 24 nM; at TYK2, 24 nM; in test [2] (setting [6]) it was 15 nM; in test [4] (setting [8]), 133 nM. In test [3] (setting [7]), the “ALK % of inhibition” value came out at 25%.
